Assay results: publication PMC10536273, “Development of Masitinib Derivatives with Enhanced M^pro Ligand Efficiency and Reduced Cytotoxicity” (Molecules, 2023)
pIC50, pKi: −log10 of the molar value. Where a name gives a salt, the structure may show the parent alone. Read-outs that look alike come from different tables or passages of the source.

What was measured:
HCoV-OC43 = test: microbe, parasite or virus in culture; format: cell-based; settings: for pIC50: read-out: IC50, HCoV-OC43 antiviral assay
SARS-CoV-2 M^pro = SARS-CoV-2 M^pro (Severe acute respiratory syndrome coronavirus 2, UniProt P0DTD1); test: cell-based; settings: transfected HEK-293T cells, 24 h; for pIC50: read-out: IC50 (approximate), SARS-CoV-2 M^pro activity, GFP normalized to TagBFP2
c-Kit enzyme = c-Kit enzyme (Homo sapiens, UniProt P10721); test: Luminescence-based in vitro c-Kit kinase assay; format: biochemical
Chain of c-Kit enzyme (P10721 26-976): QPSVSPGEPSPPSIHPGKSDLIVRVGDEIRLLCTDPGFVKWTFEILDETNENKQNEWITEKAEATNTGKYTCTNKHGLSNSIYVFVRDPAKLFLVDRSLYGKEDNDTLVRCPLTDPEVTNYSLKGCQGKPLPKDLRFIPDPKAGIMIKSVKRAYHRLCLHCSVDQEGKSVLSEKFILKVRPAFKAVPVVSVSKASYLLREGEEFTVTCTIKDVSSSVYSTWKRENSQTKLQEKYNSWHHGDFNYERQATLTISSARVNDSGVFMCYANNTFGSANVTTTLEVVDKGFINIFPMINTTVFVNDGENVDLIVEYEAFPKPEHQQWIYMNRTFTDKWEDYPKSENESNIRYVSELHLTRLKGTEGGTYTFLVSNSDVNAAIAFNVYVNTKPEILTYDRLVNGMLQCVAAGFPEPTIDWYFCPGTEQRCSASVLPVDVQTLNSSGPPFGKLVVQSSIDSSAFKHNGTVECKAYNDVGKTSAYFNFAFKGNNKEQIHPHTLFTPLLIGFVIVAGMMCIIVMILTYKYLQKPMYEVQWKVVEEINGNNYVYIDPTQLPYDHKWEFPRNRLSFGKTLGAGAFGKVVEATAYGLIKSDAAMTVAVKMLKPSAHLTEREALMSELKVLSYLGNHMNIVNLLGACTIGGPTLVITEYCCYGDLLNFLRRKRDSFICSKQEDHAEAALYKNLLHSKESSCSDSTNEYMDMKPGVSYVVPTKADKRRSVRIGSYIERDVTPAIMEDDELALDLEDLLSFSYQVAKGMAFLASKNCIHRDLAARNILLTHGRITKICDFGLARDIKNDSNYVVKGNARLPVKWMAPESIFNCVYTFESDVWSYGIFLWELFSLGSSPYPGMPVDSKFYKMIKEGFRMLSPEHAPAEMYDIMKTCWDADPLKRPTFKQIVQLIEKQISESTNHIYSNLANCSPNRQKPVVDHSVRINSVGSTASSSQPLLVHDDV

A549 cells [1] = settings: human
A549 cells [2] = test: Compound toxicity assay, live cell imaging of A549 cell growth; settings: compared to DMSO
M^pro = settings: masitinib activity on M^pro; read-out: inhibition constant, Ki; cited from earlier work
[3] = A549+hACE2 cells, MOI 0.1, 48 h, normalized to DMSO

SMILES | pIC50 (HCoV-OC43; Betacoronavirus 1, OC43, 48 h) | pIC50 (c-Kit enzyme) | Doubling Time (A549 cells [1]; 0.3 µM) [h] | Doubling Time (A549 cells [1]; 1 µM) [h] | Doubling Time (A549 cells [1]; 3 µM) [h] | Doubling Time (A549 cells [1]; 10 µM) [h] | further results
Cc1ccc(C(=O)Nc2ccc(C)c(Nc3nc(-c4cccnc4)cs3)c2)cc1 [M3] | 5.40 | 7.11 | 22.13 | 21.49 | 22.49 | 30.76 | pIC50 (SARS-CoV-2 M^pro): 5.60
Cc1ccc(NC(=O)c2ccc(CN3CCN(C)CC3)cc2)cc1Nc1nc(-c2cccnc2)cs1 [masitinib (TFA), Masitinib trifluoroacetate salt] |  |  |  |  |  |  | pIC50 (HCoV-OC43; [3]): 5.40; effect on cell growth (in words) (A549 cells [2]; 3 µM dose): still inhibited cell division; effect on cell growth (in words) (A549 cells [2]; 10 µM compound dose): completely inhibited cell growth
CC(=O)Nc1ccc(C)c(Nc2nc(-c3cccnc3)cs2)c1 [M4] | 5.24 |  | 22.01 | 21.47 | 22.28 | 37.36 | 
Cc1ccc(NC(=O)c2ccc(CN3CCN(C)CC3)cc2)cc1Nc1nc(-c2cccnc2)cs1 [masitinib (Original), masitinib] | 5.77 |  |  |  |  |  | 
Cc1ccc(NC(=O)c2ccc(CN3CCN(C)CC3)cc2O)cc1Nc1nc(-c2cccnc2)cs1 [M2] | 5.17 | 6.63 | 21.52 | 21.44 | 21.57 | 33.63 | pIC50 (SARS-CoV-2 M^pro): 5.08
Cc1ccc(OC(=O)c2ccc(CN3CCN(C)CC3)cc2)cc1Nc1nc(-c2cccnc2)cs1 [M5] |  |  | 22.37 | 21.95 | 21.83 | 25.19 | IC50, HCoV-OC43 antiviral assay (HCoV-OC43; [3]): no measurable antiviral activity
Cc1ccc(NC(=O)c2ccc(CN3CCN(C)CC3)cc2)cc1Nc1nc(-c2cccnc2)cs1 [masitinib] |  |  |  |  |  |  | pKi (M^pro): 5.59
Cc1ccc(NC(=O)c2ccc(CN3CCN(C)CC3)c(O)c2)cc1Nc1nc(-c2cccnc2)cs1 [M1] | 5.33 | 5.96 | 21.75 | 21.89 | 23.72 | 52.78 | IC50 (approximate), SARS-CoV-2 M^pro activity, GFP normalized to TagBFP2 (SARS-CoV-2 M^pro): did not show inhibition of M^pro activity
